Where two headings read alike, the source gives them in different places.
Assays:
[1] = biological target: T1, human HDAC8 (Homo sapiens, UniProt Q9BY41); assay: HDAC8 inhibitor enzymatic assay, % inhibition at fixed concentration; format: biochemical; conditions: for inhibition at 10 µM: read-out: %inhibition of HDACs at 10µM of test compound HDAC8
T1 construct: purchased BPS Bioscience 50008
T1 sequence (Q9BY41 1-377): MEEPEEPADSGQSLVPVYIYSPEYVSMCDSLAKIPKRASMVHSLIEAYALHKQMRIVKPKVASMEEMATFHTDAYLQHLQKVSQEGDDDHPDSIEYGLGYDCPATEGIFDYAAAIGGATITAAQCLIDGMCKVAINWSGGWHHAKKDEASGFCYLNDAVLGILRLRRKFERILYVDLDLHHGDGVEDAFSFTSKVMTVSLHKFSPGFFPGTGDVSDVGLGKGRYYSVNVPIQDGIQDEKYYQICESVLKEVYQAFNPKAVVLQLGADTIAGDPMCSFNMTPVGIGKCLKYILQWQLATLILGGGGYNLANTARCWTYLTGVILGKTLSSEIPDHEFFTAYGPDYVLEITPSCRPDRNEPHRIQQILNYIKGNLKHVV

[2] = biological target: T2, human HDAC6 (Homo sapiens, UniProt Q9UBN7); assay: HDAC6 inhibitor enzymatic assay, % inhibition at fixed concentration; conditions: for inhibition at 10 µM: read-out: %inhibition of HDACs at 10µM of test compound HDAC6
T2 sequence (Q9UBN7 1-1215): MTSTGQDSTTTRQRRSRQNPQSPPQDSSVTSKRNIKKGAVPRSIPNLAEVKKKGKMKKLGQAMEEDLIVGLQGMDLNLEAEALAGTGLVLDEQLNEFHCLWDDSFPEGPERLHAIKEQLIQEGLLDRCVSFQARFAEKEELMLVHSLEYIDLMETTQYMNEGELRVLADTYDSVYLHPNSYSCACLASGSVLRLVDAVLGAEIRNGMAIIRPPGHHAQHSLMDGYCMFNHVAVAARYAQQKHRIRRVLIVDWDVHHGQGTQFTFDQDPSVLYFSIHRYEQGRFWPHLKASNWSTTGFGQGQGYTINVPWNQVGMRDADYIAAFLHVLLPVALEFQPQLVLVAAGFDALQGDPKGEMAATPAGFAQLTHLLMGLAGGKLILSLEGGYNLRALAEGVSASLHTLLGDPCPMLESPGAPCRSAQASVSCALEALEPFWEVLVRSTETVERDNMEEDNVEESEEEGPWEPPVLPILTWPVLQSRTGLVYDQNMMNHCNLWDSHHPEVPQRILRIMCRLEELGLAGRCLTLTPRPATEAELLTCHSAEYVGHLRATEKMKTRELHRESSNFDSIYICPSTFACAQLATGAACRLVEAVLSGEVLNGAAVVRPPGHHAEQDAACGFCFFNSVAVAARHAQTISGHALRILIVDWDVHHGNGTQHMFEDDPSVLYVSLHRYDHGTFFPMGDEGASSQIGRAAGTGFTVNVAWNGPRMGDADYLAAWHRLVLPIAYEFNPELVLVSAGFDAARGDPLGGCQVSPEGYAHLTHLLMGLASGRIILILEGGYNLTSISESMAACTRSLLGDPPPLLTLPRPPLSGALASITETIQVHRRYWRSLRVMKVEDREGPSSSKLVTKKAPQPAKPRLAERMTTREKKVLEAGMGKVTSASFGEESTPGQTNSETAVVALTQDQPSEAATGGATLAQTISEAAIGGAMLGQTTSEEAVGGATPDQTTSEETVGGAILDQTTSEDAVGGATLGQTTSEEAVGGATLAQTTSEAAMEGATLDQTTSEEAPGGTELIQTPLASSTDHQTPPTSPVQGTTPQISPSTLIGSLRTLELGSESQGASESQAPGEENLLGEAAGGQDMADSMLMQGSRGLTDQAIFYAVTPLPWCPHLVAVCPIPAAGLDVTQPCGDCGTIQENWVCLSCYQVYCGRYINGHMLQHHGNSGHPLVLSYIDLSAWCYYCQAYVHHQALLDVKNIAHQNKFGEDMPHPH

[3] = biological target: T3, human HDAC1 (Homo sapiens, UniProt Q13547); assay: HDAC1 inhibitor enzymatic assay, % inhibition at fixed concentration (BPS Bioscience, fluorogenic); format: biochemical; conditions: read-out: %inhibition of HDACs at 10µM of test compound HDAC1; 10 µM compound; mean of two replicates
T3 construct: purchased BPS Bioscience 50051
T3 sequence (Q13547 whole entry): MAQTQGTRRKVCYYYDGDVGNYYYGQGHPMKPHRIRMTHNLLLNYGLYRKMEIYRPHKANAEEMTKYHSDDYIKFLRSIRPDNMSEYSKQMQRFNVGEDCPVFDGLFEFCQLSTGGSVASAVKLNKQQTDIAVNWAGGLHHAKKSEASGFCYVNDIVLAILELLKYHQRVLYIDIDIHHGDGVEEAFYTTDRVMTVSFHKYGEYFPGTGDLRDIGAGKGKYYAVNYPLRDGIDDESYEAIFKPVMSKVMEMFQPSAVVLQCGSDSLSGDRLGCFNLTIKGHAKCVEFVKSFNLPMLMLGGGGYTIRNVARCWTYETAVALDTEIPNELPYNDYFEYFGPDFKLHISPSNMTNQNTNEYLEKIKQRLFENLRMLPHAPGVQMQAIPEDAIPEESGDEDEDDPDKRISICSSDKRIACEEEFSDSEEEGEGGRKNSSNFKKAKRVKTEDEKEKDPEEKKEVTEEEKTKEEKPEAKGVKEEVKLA

[4] = biological target: T4, human HDAC2 (Homo sapiens, UniProt Q92769); assay: HDAC2 inhibitor enzymatic assay, % inhibition at fixed concentration; format: biochemical; conditions: read-out: %inhibition of HDACs at 10µM of test compound HDAC2; 10 µM compound; mean of two replicates
T4 construct: purchased BPS Bioscience 50002
T4 sequence (Q92769 whole entry): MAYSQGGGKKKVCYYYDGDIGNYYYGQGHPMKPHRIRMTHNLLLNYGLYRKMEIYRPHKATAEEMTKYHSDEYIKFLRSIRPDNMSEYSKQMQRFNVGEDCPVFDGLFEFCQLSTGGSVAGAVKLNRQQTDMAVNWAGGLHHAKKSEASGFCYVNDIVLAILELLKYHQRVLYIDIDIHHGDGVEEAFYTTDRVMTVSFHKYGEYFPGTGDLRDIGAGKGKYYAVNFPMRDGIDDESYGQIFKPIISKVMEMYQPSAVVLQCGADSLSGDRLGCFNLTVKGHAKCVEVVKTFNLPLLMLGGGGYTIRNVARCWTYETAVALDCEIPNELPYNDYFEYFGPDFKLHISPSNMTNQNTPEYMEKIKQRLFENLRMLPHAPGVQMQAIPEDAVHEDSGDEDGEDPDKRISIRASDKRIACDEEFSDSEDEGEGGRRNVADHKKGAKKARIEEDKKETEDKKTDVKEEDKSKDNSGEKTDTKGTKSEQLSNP

[5] = biological target: human HDAC5 (Homo sapiens, UniProt Q9UQL6); assay: HDAC5 inhibitor enzymatic assay, % inhibition at fixed concentration
Chain of human HDAC5 (Q9UQL6 656-1122 limits assumed): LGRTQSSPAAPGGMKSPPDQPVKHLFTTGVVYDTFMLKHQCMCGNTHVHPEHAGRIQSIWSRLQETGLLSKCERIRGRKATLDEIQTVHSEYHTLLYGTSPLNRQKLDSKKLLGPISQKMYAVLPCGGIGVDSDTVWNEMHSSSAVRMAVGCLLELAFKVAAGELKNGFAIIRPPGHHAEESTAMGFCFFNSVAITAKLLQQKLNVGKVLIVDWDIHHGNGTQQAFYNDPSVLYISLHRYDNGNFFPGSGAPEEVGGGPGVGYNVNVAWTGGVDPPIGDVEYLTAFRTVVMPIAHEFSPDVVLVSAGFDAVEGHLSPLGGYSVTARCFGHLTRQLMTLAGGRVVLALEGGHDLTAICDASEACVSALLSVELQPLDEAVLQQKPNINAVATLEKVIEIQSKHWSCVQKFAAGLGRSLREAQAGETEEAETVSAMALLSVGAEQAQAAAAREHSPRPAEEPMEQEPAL

[6] = biological target: T2, human HDAC6; assay: IC50 of the test inhibitor against HDAC6 (10-dose enzymatic assay); format: biochemical; parameters: purchased BPS Bioscience 50006
[7] = biological target: T5, human HDAC11 (Homo sapiens, UniProt Q96DB2); assay: HDAC11 inhibitor enzymatic assay, % inhibition at fixed concentration
T5 sequence (Q96DB2 1-347): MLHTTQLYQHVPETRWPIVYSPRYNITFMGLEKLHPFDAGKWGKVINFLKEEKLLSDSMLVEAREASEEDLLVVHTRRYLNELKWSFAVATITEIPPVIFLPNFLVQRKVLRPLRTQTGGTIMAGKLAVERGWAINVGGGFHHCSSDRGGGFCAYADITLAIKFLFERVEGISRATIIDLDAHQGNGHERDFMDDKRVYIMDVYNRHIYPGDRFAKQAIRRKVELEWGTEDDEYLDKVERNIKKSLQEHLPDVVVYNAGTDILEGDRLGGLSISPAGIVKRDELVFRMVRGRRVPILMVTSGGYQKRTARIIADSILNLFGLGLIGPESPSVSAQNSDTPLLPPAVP

[8] = biological target: human HDAC4 (Homo sapiens, UniProt P56524); assay: HDAC4 inhibitor enzymatic assay, % inhibition at fixed concentration
Chain of human HDAC4 (P56524 627-1084 limits assumed): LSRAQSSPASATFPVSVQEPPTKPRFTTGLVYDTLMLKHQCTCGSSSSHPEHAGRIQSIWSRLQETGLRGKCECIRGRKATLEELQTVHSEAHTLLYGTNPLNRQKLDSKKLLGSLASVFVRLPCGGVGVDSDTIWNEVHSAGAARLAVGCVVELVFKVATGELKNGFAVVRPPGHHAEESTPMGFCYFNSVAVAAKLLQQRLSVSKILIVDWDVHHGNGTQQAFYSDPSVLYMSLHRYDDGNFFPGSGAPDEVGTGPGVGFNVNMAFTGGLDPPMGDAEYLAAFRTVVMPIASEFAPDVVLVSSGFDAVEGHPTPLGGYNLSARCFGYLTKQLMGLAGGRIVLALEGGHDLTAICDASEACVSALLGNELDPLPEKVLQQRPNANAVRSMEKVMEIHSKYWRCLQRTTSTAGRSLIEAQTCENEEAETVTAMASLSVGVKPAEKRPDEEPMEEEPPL

[9] = biological target: human HDAC9 (Homo sapiens, UniProt Q9UKV0); assay: HDAC9 inhibitor enzymatic assay, % inhibition at fixed concentration
Chain of human HDAC9 (Q9UKV0 1-1066 isoform Q9UKV0-5): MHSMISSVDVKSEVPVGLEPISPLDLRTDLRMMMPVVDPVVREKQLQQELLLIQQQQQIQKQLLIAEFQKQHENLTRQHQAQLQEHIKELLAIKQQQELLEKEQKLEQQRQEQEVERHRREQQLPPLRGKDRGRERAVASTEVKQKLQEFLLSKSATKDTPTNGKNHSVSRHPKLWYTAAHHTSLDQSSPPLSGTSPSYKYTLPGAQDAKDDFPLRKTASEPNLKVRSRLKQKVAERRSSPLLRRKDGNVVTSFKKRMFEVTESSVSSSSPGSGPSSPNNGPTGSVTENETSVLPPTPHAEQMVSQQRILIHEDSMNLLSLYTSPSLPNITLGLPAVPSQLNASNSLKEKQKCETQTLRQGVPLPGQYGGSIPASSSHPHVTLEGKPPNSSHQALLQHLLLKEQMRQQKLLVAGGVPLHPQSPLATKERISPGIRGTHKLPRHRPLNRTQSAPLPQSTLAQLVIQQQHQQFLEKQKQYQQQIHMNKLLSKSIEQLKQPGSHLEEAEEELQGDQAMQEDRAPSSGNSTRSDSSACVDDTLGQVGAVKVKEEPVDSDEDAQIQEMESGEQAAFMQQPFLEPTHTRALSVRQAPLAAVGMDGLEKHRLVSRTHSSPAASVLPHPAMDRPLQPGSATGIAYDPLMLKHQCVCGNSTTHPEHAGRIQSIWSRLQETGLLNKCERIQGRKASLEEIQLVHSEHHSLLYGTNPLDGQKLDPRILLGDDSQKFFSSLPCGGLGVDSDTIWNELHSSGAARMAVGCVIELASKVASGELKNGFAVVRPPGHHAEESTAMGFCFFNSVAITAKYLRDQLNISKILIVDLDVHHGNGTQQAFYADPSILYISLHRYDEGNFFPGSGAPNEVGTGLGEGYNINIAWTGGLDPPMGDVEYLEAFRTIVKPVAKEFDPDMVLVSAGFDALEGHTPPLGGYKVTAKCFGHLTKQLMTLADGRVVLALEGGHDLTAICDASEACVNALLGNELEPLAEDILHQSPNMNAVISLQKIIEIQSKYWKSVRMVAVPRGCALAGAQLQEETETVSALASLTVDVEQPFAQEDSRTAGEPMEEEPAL

[10] = system: CCHE-45 cells (primary choroid plexus carcinoma); assay: Cytotoxicity assay using xCELLigence system; format: cell-based; conditions: xCELLigence, 96 h exposure; mean of three replicates; read-out: CCHE-45 IC50 (µM)±SEM
Experimental: Established primary Choroid plexus carcinoma (CCHE-45) were cultured as previously described, in RPMI-1640 (Lonza, BE-12-702F) supplemented with 10% Fetal Bovine Serum (FBS, Gibco, 12483–020) and 100 U/ml penicillin and 100 µg/ml streptomycin (Lonza, DE17-602F). Cells were maintained at 37 °C in a 5% CO2 humidified atmosphere.
Cytotoxicity assay by the xCELLigence system was performed using RTCA xCELLigence DP system (ACEA Biosciences, Inc., San Diego, CA, USA) as per manufacturer’s instructions https://www.aceabio.com/products/rtca-dp/, https://www.aceabio.com/products/rtca-sp[65–68]. In brief, after setting up the instruments and blanking the wells with media, CCHE-45 cells were seeded into the 96 well E-plate (ACEA Biosciences) with a density of 20,000 cells/well. Attachment and growth of the cells were monitored every 1 h. Approximately 24 h after seeding, when the cells were in the log growth phase, the cells were exposed to a range of test compound 10a concentrations (3.125, 6.25, 12.5, 25, 50, 100, 200, 400) µM for 96 h. Controls received either medium alone, or medium + DMSO with a final concentration below of 0.5%. For each concentration, duplicates were tested. Experiments were conducted in three biological repeats. Results were analyzed using the RTCA software (Version 2.0). Data was exported and average IC50 value was analyzed.
• Based on previous pilot experiment, the highest SK114 conc. (100µM)
72hrs, thus this experiment was performed with higher concentration
• Cells were incubated with the drug for 96hrs
• Experiment was done in technical duplicates

[11] = read-out: HDAC6 % Activity Repeat1
[12] = read-out: HDAC6 % Activity Repeat2

## O=C(CSc1nc2ccccc2n1Cc1ccccc1)NO [Compound 6a, 2-((1-benzyl-1H-benzo[d]imidazol-2-yl)thio)-N-hydroxyacetamide]
other
  melting point: 97 °C
[1]; 10 µM compound
  inhibition at 10 µM: 14%
[2]
  inhibition at 10 µM: 2%
[3]
  inhibition at 10 µM: 6%
[4]
  inhibition at 10 µM: 5%

## O=C(CSc1nc2ccccc2n1Cc1ccc(Br)cc1)NO [Compound 6b, 2-((1–(4-bromobenzyl)-1H-benzo[d]imidazol-2-yl)thio)-N-hydroxyacetamide]
other
  melting point: 167 °C
[1]; 10 µM compound
  inhibition at 10 µM: 12%
[2]
  inhibition at 10 µM: 6%
[3]
  inhibition at 10 µM: 18%
[4]
  inhibition at 10 µM: 6%

## O=C(CSc1nc2ccccc2n1CC1CCCCC1)NO [Compound 6c, 2-((1-(Cyclohexylmethyl)-1H-benzo[d]imidazol-2-yl)thio)-N-hydroxyacetamide]
other
  melting point: 160 °C
[1]; 10 µM compound
  inhibition at 10 µM: 14%
[2]
  inhibition at 10 µM: 2%
[3]
  inhibition at 10 µM: 13%
[4]
  inhibition at 10 µM: 7%

## O=C(CSc1nc2ccccc2n1CCC1CCCCC1)NO [Compound 6d, 2-((1–(2-cyclohexylethyl)-1H-benzo[d]imidazol-2-yl)thio)-N-hydroxyacetamide]
other
  melting point: 157 °C
[1]; 10 µM compound
  inhibition at 10 µM: 1%
[2]
  inhibition at 10 µM: 2%
[3]
  inhibition at 10 µM: 14%
[4]
  inhibition at 10 µM: 3%

## O=C(CCCSc1nc2ccccc2n1Cc1ccc(Br)cc1)NO [Compound 10b, 4-((1–(4-bromobenzyl)-1H-benzo[d]imidazol-2-yl)thio)-N-hydroxybutanamide]
other
  melting point: 153 °C
[1]; 10 µM compound
  inhibition at 10 µM: 1%
[2]
  inhibition at 10 µM: 12%
[3]
  inhibition at 10 µM: 9%
[4]
  inhibition at 10 µM: 9%

## O=C(CCCSc1nc2ccccc2n1CC1CCCCC1)NO [Compound 10c, 4-((1-(Cyclohexylmethyl)-1H-benzo[d]imidazol-2-yl)thio)-N-hydroxybutanamide]
other
  melting point: 149 °C
[1]; 10 µM compound
  inhibition at 10 µM: 12%
[2]
  inhibition at 10 µM: 14%
[3]
  inhibition at 10 µM: 9%
[4]
  inhibition at 10 µM: 8%

## O=C(CCCSc1nc2ccccc2n1CCC1CCCCC1)NO [Compound 10d, 4-((1–(2-cyclohexylethyl)-1H-benzo[d]imidazol-2-yl)thio)-N-hydroxybutanamide]
other
  melting point: 132 °C
[1]; 10 µM compound
  inhibition at 10 µM: 10%
[2]
  inhibition at 10 µM: 35%
[3]
  inhibition at 10 µM: 11%
[4]
  inhibition at 10 µM: 8%

## CC(=C/C(C)C(=O)c1ccc(N(C)C)cc1)/C=C/C(=O)NO (centres unmarked) [TSA, Trichostatin A, reference compound]
[1]; read-out: % Inhibition HDAC8
  inhibition at 1 µM: 53%
[1]
  inhibition at 10 µM: 89%
[2]; read-out: % Inhibition HDAC6
  inhibition at 1 µM: 100%
[5]; read-out: % Inhibition HDAC5
  inhibition at 1 µM: 33%
  inhibition at 100 µM: 93%
[5]; read-out: %inhibition of HDACs at 10µM of test compound HDAC5
  inhibition at 10 µM: 64%
[6]; [11]
  activity at 30 pM: 100%
  activity at 0.0001 µM: 98%
  activity at 0.0003 µM: 96%
  activity at 0.001 µM: 79%
  activity at 0.003 µM: 63%
  activity at 0.01 µM: 36%
  activity at 0.03 µM: 15%
  activity at 0.1 µM: 5%
  activity at 0.3 µM: 2%
  activity at 1 µM: 0%
[6]; [12]
  activity at 30 pM: 98%
  activity at 0.0001 µM: 96%
  activity at 0.0003 µM: 89%
  activity at 0.001 µM: 84%
  activity at 0.003 µM: 58%
  activity at 0.01 µM: 34%
  activity at 0.03 µM: 13%
  activity at 0.1 µM: 5%
  activity at 0.3 µM: 2%
  activity at 1 µM: 0%
[7]; read-out: % Inhibition HDAC11
  inhibition at 1 µM: 15%
  inhibition at 100 µM: 91%
[7]; read-out: %inhibition of HDACs at 10µM of test compound HDAC11
  inhibition at 10 µM: 49%
[8]; read-out: % Inhibition HDAC4
  inhibition at 1 µM: 36%
  inhibition at 100 µM: 92%
[8]; read-out: %inhibition of HDACs at 10µM of test compound HDAC4
  inhibition at 10 µM: 64%
[9]; read-out: % Inhibition HDAC9
  inhibition at 1 µM: 15%
  inhibition at 100 µM: 95%
[9]; read-out: %inhibition of HDACs at 10µM of test compound HDAC9
  inhibition at 10 µM: 60%

## O=C(CCCCCCC(=O)Nc1ccc([C@H]2O[C@@H](CSc3nc(-c4ccccc4)c(-c4ccccc4)o3)C[C@@H](c3ccc(CO)cc3)O2)cc1)NO [Tubacin, reference compound]
[10]
  IC50: 20 ± 10.2 µM

From PMC6522981, “Structure-based design generated novel hydroxamic acid based preferential HDAC6 lead inhibitor with on-target cytotoxic activity against primary choroid plexus carcinoma” (Journal of Enzyme Inhibition and Medicinal Chemistry, 2019)
